Test results: publication PMC5292237 (Bioorganic & medicinal chemistry, 2016)

Assays:
LSD1 = conditions: cited from earlier work
human recombinant LSD1 = human recombinant LSD1 (Homo sapiens, UniProt O60341); assay: Labeling of human recombinant LSD1 after pre-treatment with LSD1 inhibitors; format: biochemical

Row | Compound | reported potency over LSD1 (LSD1) | effect of inhibitor pre-treatment on LSD1 labeling by probe 17 (human recombinant LSD1; compound 12 1 mM or TCP 1.5 mM, 30 min pre-incubation, probe 17 40 µM, 2 min UV) | effect of inhibitor pre-treatment on LSD1 labeling by probe 18 (human recombinant LSD1; compound 12 pre-incubation 30 min, probe 18 10 µM, 2 min)
1 | N[C@@H]1C[C@H]1c1ccccc1 (relative stereo) [TCP, trans-2-phenylcyclopropyl-1-amine] | 20 to 400 µM |  | 
2 | C=Cc1ccc(C(=O)Nc2ccc([C@@H]3C[C@H]3N)cc2)cc1.Cl (relative stereo) [compound 12, N-(4-(trans-2-aminocyclopropyl)phenyl)-4-vinyl benzamide hydrochloride] |  | no reduction in protein labeling | no clear difference
